ChEMBL document CHEMBL1201862, “PubChem BioAssay data set” (2004)
Calls of active or inactive are those of the source.

Experiments:
[1] = target: T1, RNA-binding protein pos-1 (Caenorhabditis elegans, UniProt G5EF15); experiment: inhibitors of POS-1/mex-3 RNA binding, dose response, biochemical, fluorescence polarization (AID 1964);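 further: purified POS-1 fused to maltose binding protein made in E. coli; potency of compounds blocking POS-1 binding to fluorescent RNA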
T1 sequence (G5EF15 whole entry): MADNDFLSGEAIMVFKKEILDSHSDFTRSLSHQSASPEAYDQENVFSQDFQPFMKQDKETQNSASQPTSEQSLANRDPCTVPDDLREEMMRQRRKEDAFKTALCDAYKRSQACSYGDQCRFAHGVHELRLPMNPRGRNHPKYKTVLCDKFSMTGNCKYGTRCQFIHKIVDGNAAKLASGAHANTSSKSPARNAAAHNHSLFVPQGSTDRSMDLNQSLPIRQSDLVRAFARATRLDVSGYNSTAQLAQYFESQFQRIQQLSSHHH

[2] = target: T2, Zinc finger protein mex-5 (Caenorhabditis elegans, UniProt Q9XUB2); experiment: MEX-5/TCR-2 RNA interaction inhibitors, dose response, biochemical, C. elegans, fluorescence polarization (AID 1960)
T2 sequence (Q9XUB2 whole entry): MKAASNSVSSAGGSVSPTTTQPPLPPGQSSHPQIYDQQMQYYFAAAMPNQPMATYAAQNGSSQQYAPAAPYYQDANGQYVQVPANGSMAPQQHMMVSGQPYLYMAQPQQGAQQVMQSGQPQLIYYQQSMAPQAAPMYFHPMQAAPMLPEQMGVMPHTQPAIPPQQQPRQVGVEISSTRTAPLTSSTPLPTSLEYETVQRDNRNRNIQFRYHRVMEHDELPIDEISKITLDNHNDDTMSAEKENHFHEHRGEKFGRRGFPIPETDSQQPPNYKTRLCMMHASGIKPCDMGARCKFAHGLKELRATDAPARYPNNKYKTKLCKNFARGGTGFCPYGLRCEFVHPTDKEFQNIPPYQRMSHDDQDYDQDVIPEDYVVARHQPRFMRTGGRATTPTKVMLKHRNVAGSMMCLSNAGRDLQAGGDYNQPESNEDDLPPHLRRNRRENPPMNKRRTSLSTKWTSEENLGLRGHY

[3] = target: Genome polyprotein (dengue virus type 2, UniProt P29990); experiment: Dengue-2 NS5 methyltransferase inhibitors, primary screen, biochemical, confirmation dose response (AID 588689); assay type: functional
[4] = target: T3, 1-phosphatidylinositol 4,5-bisphosphate phosphodiesterase beta-3 (Homo sapiens, UniProt Q01970); experiment: Fluorescence-based biochemical high throughput dose response assay to identify inhibitors of phospholipase C isozymes (PLC-B3).
T3 sequence (Q01970 whole entry): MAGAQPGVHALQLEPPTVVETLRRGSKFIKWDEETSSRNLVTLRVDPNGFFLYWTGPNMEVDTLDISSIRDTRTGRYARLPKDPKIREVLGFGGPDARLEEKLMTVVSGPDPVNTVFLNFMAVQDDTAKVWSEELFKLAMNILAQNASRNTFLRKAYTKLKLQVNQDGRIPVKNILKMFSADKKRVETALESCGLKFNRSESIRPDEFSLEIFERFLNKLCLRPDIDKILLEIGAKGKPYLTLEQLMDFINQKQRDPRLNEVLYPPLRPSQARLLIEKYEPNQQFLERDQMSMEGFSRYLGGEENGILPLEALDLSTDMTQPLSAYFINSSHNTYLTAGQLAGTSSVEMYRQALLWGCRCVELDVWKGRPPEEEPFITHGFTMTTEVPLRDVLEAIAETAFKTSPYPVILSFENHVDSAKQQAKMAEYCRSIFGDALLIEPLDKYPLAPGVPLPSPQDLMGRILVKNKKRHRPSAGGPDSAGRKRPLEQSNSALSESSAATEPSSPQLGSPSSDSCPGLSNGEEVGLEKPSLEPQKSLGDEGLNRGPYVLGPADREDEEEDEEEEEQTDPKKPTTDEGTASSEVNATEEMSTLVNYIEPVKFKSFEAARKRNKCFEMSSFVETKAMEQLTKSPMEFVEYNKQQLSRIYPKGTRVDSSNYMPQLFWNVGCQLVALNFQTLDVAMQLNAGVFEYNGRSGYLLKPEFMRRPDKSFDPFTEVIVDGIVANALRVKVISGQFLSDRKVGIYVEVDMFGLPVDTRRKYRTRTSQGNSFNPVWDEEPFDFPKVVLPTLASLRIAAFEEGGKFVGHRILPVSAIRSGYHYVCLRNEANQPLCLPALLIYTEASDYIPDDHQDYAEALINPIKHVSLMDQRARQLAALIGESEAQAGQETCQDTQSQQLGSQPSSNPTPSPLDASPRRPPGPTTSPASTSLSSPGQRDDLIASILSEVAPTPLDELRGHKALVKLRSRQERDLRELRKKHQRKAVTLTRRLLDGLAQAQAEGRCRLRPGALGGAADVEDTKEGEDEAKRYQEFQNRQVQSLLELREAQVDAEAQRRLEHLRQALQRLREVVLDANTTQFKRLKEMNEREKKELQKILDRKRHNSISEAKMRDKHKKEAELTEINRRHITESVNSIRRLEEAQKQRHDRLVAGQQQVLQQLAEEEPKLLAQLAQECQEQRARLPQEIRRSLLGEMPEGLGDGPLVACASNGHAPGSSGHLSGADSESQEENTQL

[5] = target: Megakaryocyte-associated tyrosine-protein kinase (Homo sapiens, UniProt P42679); assay type: functional;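 further: affinity measured as one member of a kinase panel (Navigating the Kinome) against MATK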
[6] = target: Tyrosine-protein kinase JAK2 (Homo sapiens, UniProt O60674); assay type: functional;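 further: JAK2 tested as one member of a kinase panel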
[7] = target: Mast/stem cell growth factor receptor Kit (Homo sapiens, UniProt P10721); assay type: functional;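 further: KIT entry within a kinase panel assay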
[8] = target: Casein kinase I isoform alpha (Homo sapiens, UniProt P48729); assay type: functional
[9] = target: Protein kinase C gamma type (Homo sapiens, UniProt P05129); assay type: functional
[10] = target: MAP kinase-activated protein kinase 3 (Homo sapiens, UniProt Q16644); assay type: functional;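 further: value comes from a kinome-wide profiling panel in which MAPKAPK3 is one of the panel members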
[11] = target: Tyrosine-protein kinase ABL1 (Homo sapiens, UniProt P00519); assay type: functional
[12] = target: Vascular endothelial growth factor receptor 2 (Homo sapiens, UniProt P35968); assay type: functional
[13] = target: Dual specificity tyrosine-phosphorylation-regulated kinase 4 (Homo sapiens, UniProt Q9NR20); assay type: functional
[14] = target: Tyrosine-protein kinase Fer (Homo sapiens, UniProt P16591); assay type: functional;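 further: FER tested as one member of a kinome panel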
[15] = target: Homeodomain-interacting protein kinase 4 (Homo sapiens, UniProt Q8NE63); assay type: functional
[16] = target: Serine/threonine-protein kinase Nek2 (Homo sapiens, UniProt P51955); assay type: functional
Serine/threonine-protein kinase Nek2, sequence (P51955 whole entry): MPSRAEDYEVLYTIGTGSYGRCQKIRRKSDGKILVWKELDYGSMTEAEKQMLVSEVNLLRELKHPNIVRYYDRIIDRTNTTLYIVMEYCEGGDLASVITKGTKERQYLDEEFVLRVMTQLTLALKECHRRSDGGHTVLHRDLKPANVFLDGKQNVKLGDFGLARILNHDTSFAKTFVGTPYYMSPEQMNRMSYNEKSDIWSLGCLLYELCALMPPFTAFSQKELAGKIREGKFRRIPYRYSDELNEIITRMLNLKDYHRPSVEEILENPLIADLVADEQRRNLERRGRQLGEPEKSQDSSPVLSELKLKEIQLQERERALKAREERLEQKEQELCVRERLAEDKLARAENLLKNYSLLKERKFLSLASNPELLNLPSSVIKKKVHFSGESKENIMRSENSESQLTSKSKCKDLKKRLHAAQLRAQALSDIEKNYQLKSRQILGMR

Mast/stem cell growth factor receptor Kit, sequence (P10721 whole entry, canonical isoform): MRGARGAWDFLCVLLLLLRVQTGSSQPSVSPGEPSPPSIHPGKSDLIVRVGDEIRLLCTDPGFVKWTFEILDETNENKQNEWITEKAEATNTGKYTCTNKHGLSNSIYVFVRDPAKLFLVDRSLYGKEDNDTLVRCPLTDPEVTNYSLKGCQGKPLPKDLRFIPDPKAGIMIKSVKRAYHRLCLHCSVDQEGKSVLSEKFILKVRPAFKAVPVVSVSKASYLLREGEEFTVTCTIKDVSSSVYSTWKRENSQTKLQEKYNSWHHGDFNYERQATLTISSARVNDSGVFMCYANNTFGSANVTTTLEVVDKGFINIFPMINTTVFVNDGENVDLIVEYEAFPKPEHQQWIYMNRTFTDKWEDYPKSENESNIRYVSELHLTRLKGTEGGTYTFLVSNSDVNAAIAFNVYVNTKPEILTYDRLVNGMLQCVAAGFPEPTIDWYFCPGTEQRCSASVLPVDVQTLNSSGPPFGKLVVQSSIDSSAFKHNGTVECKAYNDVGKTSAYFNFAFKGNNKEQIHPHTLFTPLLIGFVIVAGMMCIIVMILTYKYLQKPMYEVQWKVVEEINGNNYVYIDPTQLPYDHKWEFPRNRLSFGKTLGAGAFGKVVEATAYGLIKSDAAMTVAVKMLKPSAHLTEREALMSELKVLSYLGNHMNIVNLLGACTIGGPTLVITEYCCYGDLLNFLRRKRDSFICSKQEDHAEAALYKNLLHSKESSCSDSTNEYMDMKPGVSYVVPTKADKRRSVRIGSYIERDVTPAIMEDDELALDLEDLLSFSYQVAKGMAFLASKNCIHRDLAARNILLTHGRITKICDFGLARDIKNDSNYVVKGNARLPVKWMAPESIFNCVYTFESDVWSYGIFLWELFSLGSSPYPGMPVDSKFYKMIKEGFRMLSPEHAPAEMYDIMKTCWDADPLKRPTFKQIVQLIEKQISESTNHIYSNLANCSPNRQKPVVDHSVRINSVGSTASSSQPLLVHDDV
Dual specificity tyrosine-phosphorylation-regulated kinase 4, sequence (Q9NR20 whole entry): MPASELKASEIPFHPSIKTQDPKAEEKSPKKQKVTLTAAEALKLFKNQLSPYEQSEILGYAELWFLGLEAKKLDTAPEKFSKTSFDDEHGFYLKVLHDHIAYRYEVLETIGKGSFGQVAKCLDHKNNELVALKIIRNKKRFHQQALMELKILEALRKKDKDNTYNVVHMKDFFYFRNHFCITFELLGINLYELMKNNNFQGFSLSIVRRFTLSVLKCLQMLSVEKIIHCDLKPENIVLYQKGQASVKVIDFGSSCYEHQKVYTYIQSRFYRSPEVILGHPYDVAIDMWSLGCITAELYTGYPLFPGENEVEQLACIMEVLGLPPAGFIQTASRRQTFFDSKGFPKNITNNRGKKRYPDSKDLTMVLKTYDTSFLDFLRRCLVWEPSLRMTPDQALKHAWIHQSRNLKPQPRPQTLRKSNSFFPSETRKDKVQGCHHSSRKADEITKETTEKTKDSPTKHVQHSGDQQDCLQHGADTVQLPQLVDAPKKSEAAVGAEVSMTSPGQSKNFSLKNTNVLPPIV
Tyrosine-protein kinase JAK2, sequence (O60674 whole entry): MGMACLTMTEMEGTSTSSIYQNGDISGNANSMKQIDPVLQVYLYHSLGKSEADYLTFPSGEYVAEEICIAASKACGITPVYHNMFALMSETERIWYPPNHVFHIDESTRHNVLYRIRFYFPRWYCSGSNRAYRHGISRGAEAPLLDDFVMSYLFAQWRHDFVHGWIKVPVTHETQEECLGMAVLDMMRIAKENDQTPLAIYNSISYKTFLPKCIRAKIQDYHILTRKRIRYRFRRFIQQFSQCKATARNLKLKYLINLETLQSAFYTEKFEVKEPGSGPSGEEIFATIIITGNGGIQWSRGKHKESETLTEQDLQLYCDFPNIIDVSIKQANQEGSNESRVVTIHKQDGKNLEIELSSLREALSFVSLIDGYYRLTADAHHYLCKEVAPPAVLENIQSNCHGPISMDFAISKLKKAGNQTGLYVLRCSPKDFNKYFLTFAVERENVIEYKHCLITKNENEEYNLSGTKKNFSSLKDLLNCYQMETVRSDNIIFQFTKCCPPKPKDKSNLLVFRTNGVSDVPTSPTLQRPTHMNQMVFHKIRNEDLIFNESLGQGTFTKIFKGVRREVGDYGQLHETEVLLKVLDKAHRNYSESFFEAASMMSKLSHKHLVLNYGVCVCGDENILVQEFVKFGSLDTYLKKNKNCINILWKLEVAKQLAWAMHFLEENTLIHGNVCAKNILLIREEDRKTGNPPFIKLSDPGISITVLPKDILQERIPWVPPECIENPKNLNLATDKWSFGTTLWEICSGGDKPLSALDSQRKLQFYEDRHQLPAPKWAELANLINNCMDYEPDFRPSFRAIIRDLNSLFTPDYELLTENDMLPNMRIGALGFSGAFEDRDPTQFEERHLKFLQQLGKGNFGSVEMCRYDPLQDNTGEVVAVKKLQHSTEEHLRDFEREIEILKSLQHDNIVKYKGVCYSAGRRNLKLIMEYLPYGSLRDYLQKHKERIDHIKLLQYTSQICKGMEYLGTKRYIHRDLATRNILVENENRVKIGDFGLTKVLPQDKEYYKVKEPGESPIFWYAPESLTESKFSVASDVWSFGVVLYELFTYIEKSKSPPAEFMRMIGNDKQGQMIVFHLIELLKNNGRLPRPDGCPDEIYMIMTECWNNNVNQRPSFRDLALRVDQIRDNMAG
Megakaryocyte-associated tyrosine-protein kinase, sequence (P42679 whole entry): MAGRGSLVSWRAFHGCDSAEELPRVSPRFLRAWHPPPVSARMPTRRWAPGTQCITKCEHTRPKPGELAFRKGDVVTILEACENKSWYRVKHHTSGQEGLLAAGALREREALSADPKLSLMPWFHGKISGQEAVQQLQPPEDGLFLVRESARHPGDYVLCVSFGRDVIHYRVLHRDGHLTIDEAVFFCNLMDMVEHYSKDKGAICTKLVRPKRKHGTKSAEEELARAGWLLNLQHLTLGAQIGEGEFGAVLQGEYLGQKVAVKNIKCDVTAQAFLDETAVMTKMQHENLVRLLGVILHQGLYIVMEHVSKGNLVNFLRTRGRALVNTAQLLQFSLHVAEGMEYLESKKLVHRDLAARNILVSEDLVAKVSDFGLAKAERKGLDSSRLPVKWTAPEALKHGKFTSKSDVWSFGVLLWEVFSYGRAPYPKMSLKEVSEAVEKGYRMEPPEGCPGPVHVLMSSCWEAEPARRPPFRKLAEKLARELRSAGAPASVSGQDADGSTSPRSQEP
Casein kinase I isoform alpha, sequence (P48729 whole entry, canonical isoform): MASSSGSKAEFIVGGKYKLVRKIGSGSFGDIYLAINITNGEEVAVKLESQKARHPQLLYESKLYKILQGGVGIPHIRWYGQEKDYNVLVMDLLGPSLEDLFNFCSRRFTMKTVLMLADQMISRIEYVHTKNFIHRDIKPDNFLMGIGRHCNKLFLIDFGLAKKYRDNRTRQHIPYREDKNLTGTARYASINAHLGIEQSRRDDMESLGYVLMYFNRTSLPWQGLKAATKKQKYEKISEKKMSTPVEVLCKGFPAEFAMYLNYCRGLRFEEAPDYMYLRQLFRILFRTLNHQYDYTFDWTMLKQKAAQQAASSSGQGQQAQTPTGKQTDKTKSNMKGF
MAP kinase-activated protein kinase 3, sequence (Q16644 whole entry): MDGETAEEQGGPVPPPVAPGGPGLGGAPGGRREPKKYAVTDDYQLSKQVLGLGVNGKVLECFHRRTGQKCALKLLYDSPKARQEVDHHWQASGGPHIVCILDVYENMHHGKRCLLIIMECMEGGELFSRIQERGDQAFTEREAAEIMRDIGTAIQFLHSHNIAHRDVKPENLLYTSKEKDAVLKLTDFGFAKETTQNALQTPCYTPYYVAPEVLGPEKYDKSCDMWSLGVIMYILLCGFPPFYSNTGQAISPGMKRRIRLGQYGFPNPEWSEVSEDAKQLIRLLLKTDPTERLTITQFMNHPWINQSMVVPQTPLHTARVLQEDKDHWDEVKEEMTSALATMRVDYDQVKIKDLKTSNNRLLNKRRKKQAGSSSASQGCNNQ

Row | Ki [5] | Ki [6] | Ki [7] | Ki [8] | Ki [9] | Ki [10] | Ki [11] | Ki [12] | Ki [13] | Ki [14] | Ki [15] | Ki [16] | Structure (SMILES) | EC50 [1] | EC50 [2] | IC50 [3] | IC50 [4]
1 | – | – | – | – | – | – | – | – | – | – | – | – | Cc1ccc(/C=C2/C(=O)c3ccc(C(=O)O)cc3C2=O)o1 | 87.7 µM (active) | 63.6 µM (active) | 40.1 µM (active) | > 122 µM (inactive)
2 | > 2 µM (inactive) | > 2.51 µM (inactive) | > 1.26 µM (inactive) | > 5.01 µM (inactive) | 0.501 µM (active) | > 10 µM (inactive) | > 0.631 µM (inactive) | > 2 µM (inactive) | 1.26 µM (active) | 0.398 µM (active) | 1.26 µM (active) | 6.31 µM (active) | Clc1cc(NC2CCCCC2)nc(-c2c[nH]c3ncccc23)n1 | – | – | – | –
